According to US20230382924A1, “MODULATORS OF CYSTIC FIBROSIS TRANSMEMBRANE CONDUCTANCE REGULATOR” (VERTEX PHARMACEUTICALS INCORPORATED, priority 2020, published 2023):
Where two headings read alike, the source gives them in different places.

Assays:
[1] = biological target: T1, F508del (Homo sapiens, UniProt P13569, DEL508-508); test: 3T3 assay: membrane potential optical assay for F508del correction in NIH 3T3 cells; type: cell-based
T1 construct: expressed in transfected cells
From the text: 1. Membrane Potential Optical Methods for Assaying F508del Modulation Properties of Compounds
The assay utilizes fluorescent voltage sensing dyes to measure changes in membrane potential using a fluorescent plate reader (e.g., FLIPR III, Molecular Devices, Inc.) as a readout for increase in functional F508del in NIH 3T3 cells. The driving force for the response is the creation of a chloride ion gradient in conjunction with channel activation by a single liquid addition step after the cells have previously been treated with compounds and subsequently loaded with a voltage sensing dye.
2. Identification of Corrector Compounds
To identify correctors of F508del, a single-addition HTS assay format was developed. This HTS assay utilizes fluorescent voltage sensing dyes to measure changes in membrane potential on the FLIPR III as a measurement for increase in gating (conductance) of F508del in F508del NIH 3T3 cells. The F508del NIH 3T3 cell cultures were incubated with the corrector compounds at a range of concentrations for 18-24 hours at 37° C., and subsequently loaded with a redistribution dye. The driving force for the response is a Cl^− ion gradient in conjunction with channel activation with forskolin in a single liquid addition step using a fluorescent plate reader such as FLIPR III.
Bath Solution #1: (in mM) NaCl 160, KCl 4.5, CaCl2) 2, MgCl2 1, HEPES 10, pH 7.4 with NaOH.
Chloride-free bath solution: Chloride salts in Bath Solution #1 (above) are substituted with gluconate salts.
NIH3T3 mouse fibroblasts stably expressing F508del are used for optical measurements of membrane potential. The cells are maintained at 37° C. in 5% CO2 and 90% humidity in Dulbecco's modified Eagle's medium supplemented with 2 mM glutamine, 10% fetal bovine serum, 1×NEAA, b-ME, 1×pen/strep, and 25 mM HEPES in 175 cm^2 culture flasks. For all optical assays, the cells were seeded at ˜20,000/well in 384-well matrigel-coated plates. For the correction assays, the cells are cultured at 37° C. with and without compounds for 16-24 hours.

[2] = biological target: T2, CFTR (Homo sapiens, UniProt P13569); test: Membrane Potential Dye, Enteroid Assay A; type: cell-based; settings: for EC50: read-out: Ent. A EC50
In short: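 Signal is reported as % Activity relative to a triple CFTR modulator control (3 μM + 3 μM + 300 nM acute). Read-out: membrane potential fluorescence (20 μM methyl oxonol) monitored for 15 min after chloride-free stimulation. Dye loading took 25 min at room temperature in Bath 1 buffer containing CaCC blockers.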

[3] = biological target: T2, CFTR; test: Membrane Potential Dye, Enteroid Assay B; type: cell-based; settings: Enteroid Assay B; read-out: Ent. B EC50
In short: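 Enteroid cells loaded 25 min at room temperature with 20 μM methyl oxonol plus 30 μM CaCCinh-A01 and 30 μM Chicago Sky Blue, then switched to chloride-free gluconate buffer. Chloride transport was started by chloride-free stimulation solution, with fluorescence read for 15 min.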

[4] = NIH 3T3 cells, F508del correction

T2 sequence (P13569 with tags, fused parts or gaps DEL508-508): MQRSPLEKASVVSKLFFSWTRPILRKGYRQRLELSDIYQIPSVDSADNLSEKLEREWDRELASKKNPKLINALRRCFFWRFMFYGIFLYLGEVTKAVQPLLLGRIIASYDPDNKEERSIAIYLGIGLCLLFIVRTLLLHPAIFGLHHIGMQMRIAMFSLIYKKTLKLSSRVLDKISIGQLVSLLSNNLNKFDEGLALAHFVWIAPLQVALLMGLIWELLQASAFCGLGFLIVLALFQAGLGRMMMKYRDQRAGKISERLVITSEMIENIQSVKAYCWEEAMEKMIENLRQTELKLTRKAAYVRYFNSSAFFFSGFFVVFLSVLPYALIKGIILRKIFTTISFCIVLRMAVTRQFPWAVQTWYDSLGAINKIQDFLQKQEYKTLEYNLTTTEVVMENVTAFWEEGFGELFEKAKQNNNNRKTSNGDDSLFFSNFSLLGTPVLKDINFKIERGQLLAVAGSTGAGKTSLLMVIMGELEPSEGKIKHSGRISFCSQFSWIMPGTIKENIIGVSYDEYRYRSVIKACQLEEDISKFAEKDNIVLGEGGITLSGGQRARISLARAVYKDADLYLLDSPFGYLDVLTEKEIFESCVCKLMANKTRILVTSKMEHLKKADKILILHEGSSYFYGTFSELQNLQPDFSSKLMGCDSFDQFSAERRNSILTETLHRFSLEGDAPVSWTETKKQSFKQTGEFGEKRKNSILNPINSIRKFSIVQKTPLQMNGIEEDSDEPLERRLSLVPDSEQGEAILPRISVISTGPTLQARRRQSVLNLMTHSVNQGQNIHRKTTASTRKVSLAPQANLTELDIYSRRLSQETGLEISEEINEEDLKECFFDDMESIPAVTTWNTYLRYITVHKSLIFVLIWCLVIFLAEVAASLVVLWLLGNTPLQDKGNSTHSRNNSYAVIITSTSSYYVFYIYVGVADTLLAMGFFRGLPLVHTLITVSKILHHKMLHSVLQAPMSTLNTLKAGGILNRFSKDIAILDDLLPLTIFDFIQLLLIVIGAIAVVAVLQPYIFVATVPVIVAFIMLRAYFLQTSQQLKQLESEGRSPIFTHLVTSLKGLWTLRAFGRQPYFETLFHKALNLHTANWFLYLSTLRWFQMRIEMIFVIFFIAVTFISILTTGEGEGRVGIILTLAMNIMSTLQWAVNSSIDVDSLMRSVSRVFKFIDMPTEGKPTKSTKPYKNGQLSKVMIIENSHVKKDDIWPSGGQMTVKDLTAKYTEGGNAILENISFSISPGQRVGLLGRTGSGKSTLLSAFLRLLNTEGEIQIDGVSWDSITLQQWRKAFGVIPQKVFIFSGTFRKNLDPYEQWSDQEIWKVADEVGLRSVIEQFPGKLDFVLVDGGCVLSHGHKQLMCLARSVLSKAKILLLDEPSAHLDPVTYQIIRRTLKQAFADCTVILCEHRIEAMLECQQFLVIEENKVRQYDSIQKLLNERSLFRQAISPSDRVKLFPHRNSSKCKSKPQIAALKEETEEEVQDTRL
T1 sequence (P13569 with tags, fused parts or gaps DEL508-508): as above

Row | SMILES | EC50 [1, 4] | Ent. A Max Activity ([2]; Enteroid Assay A) | EC50 ([2]; Enteroid Assay A) | further results
1 | Cc1cccc(C)c1-c1cc2nc(n1)NS(=O)(=O)c1cccc(c1)NC(=O)Nc1cccc(c1)O2 [Compound 1, 5-(2,6-Dimethylphenyl)-9,9-dioxo-2-oxa-9λ^6-thia-6,8,15,17,24-pentazatetracyclo[16.3.1.13,7.110,14]tetracosa-1(21),3,5,7(24),10(23),11,13,18(22),19-nonaen-16-one] | 1000 to 3000 nM | ++ (++ is 30-60%) | 1000 to 3000 nM | ring closure, yield after HPLC (from 3-amino-N-[4-(3-aminophenoxy)-6-(2,6-dimethylphenyl)pyrimidin-2-yl]benzenesulfonamide (Dihydrochloride salt), crosslinker bond, 15-membered ring, 1,3-dimethyl-tetrahydro-pyrimidin-2-one, 26.2 mM): 13%
2 | Cc1cccc(C)c1-c1cc2nc(n1)NS(=O)(=O)c1cccc(c1C)C(=O)N[C@H](CC1CCCCC1)CO2 [Compound 75, (11R)-11-(Cyclohexylmethyl)-6-(2,6-dimethylphenyl)-18-methyl-9-oxa-2λ^6-thia-3,5,12,19-tetraazatricyclo[12.3.1.14,8]nonadeca-1(17),4(19),5,7,14(18),15-hexaene-2,2,13-trione] | – | – | – | ring closure, yield after HPLC (from Cc1cccc(C)c1-c1cc(OC[C@H](N)CC2CCCCC2)nc(NS(=O)(=O)c2cccc(C(=O)O)c2C)n1, amide bond, 13-membered ring, HATU/TEA, DMF, 40.1 mM, 0.42 h): 8%; Emax ([1]; NIH3T3, Table 8, read-out: 3T3 Max Activity): > 60%; EC50 ([1]; Table 8): < 1000 nM; Ent. A Max Activity ([2]; Table 8): +++ (+++ is >60%); EC50 ([2]; Table 8): < 1000 nM
3 | Cc1cccc(C)c1-c1cc2nc(n1)NS(=O)(=O)c1cccc(c1)C(=O)N[C@H](CC1CCC1)CO2 [Compound 113, (11R)-11-(cyclobutylmethyl)-6-(2,6-dimethylphenyl)-9-oxa-2λ^6-thia-3,5,12,19-tetraazatricyclo[12.3.1.14,8]nonadeca-1(17),4,6,8(19),14(18),15-hexaene-2,2,13-trione] | < 1000 nM | +++ (+++ is >600%) | < 1000 nM | ring closure, yield after HPLC (from Cc1cccc(C)c1-c1cc(OC[C@H](N)CC2CCC2)nc(NS(=O)(=O)c2cccc(C(=O)O)c2)n1, amide bond, 13-membered ring, HATU/DIEA, DMF, 65.5 mM, 25.0 °C, 1.0 h, 2 steps): 21%

Further lines, with some results ahead:

Row | EC50 [1, 4] | Ent. A Max Activity ([2]; Enteroid Assay A) | EC50 ([2]; Enteroid Assay A) | SMILES | further results
4 | < 1000 nM | +++ (+++ is >600%) | < 1000 nM | Cc1cccc(C)c1-c1cc2nc(n1)NS(=O)(=O)c1cccc(c1)C(=O)N[C@H](CCC(C)C)CO2 [Compound 46, (11R)-6-(2,6-dimethylphenyl)-11-(3-methylbutyl)-9-oxa-2λ^6-thia-3,5,12,19-tetraazatricyclo[12.3.1.14,8]nonadeca-1(17),4,6,8(19),14(18),15-hexaene-2,2,13-trione] | ring closure, yield after HPLC (from Cc1cccc(C)c1-c1cc(OC[C@H](N)CCC(C)C)nc(NS(=O)(=O)c2cccc(C(=O)O)c2)n1, amide bond, 13-membered ring, HATU/DIEA, DMF, 9.1 mM, 25.0 °C, 1.0 h, 3 steps): 3%
5 | < 1000 nM | +++ (+++ is >600%) | < 1000 nM | Cc1cc2cc(c1)S(=O)(=O)Nc1nc(cc(-c3c(C)cccc3C)n1)OC[C@@H](CC1CCCCC1)NC2=O [Compound 74, (11R)-11-(Cyclohexylmethyl)-6-(2,6-dimethylphenyl)-16-methyl-2,2-dioxo-9-oxa-2λ^6-thia-3,5,12,19-tetrazatricyclo[12.3.1.14,8]nonadeca-1(18),4(19),5,7,14,16-hexaen-13-one] | ring closure, yield after HPLC (from Cc1cc(C(=O)O)cc(S(=O)(=O)Nc2nc(OC[C@H](N)CC3CCCCC3)cc(-c3c(C)cccc3C)n2)c1, amide bond, 13-membered ring, HATU/TEA, DMF, 39.0 mM, 0.42 h): 28%
6 | < 1000 nM | +++ (+++ is >600%) | < 1000 nM | Cc1cccc(C)c1-c1cc2nc(n1)NS(=O)(=O)c1cccc(c1)C(=O)N[C@H](CC(C)C)CO2 [Compound 96, (11R)-6-(2,6-Dimethylphenyl)-11-isobutyl-2,2-dioxo-9-oxa-2λ^6-thia-3,5,12,19-tetrazatricyclo[12.3.1.14,8]nonadeca-1(18),4(19),5,7,14,16-hexaen-13-one] | ring closure, yield after HPLC (from Cc1cccc(C)c1-c1cc(OC[C@H](N)CC(C)C)nc(NS(=O)(=O)c2cccc(C(=O)O)c2)n1, amide bond, 13-membered ring, HATU/TEA, DMF, 31.8 mM, 25.0 °C, 3.0 h): 57%; EC50 [3]: < 1000 nM
